Series [1] can be described thus: Body weight (growth inhibition) of DBA/1 mice. The settings on record: 0.0625 mg kg^-1 daily, 2 weeks. The class given is in vivo. As to the method:
Figure 5 Examination of side effects of VSGC12 and FF at the effective dose. (a) Body weight of DBA/1 mice treated with the indicated daily dose of steroids for 2 weeks. Mice body weight was measured at day 0, 7 and 14. (b) Insulin-tolerance test of mice treated with the indicated daily doses of steroids for 7 days. Glucose level was measured at day 7 at various time points before and after insulin injection. Data were plotted as percent of the glucose level of time 0. (c) Plasma insulin levels of mice treated with the indicated daily doses of steroid for 7 days. (d) Spleen size and weight for mice treated with the indicated daily doses of steroid for 2 weeks. (e) Cortical bone thickness of femurs of mice treated with the indicated daily doses of steroid for 2 weeks. (f) Bone stiffness of femurs of mice treated with the indicated daily doses of steroid for 2 weeks. Mouse strain: DBA/1. Each treatment n=5, error bars indicate s.e.m., *P<0.05; **P<0.01; ***P<0.001.

Another series concerns the target T1, MR (Homo sapiens, UniProt P08235).
T1 construct: expressed in transfected cells; host or cells: AD293
T1 sequence (P08235 1-984): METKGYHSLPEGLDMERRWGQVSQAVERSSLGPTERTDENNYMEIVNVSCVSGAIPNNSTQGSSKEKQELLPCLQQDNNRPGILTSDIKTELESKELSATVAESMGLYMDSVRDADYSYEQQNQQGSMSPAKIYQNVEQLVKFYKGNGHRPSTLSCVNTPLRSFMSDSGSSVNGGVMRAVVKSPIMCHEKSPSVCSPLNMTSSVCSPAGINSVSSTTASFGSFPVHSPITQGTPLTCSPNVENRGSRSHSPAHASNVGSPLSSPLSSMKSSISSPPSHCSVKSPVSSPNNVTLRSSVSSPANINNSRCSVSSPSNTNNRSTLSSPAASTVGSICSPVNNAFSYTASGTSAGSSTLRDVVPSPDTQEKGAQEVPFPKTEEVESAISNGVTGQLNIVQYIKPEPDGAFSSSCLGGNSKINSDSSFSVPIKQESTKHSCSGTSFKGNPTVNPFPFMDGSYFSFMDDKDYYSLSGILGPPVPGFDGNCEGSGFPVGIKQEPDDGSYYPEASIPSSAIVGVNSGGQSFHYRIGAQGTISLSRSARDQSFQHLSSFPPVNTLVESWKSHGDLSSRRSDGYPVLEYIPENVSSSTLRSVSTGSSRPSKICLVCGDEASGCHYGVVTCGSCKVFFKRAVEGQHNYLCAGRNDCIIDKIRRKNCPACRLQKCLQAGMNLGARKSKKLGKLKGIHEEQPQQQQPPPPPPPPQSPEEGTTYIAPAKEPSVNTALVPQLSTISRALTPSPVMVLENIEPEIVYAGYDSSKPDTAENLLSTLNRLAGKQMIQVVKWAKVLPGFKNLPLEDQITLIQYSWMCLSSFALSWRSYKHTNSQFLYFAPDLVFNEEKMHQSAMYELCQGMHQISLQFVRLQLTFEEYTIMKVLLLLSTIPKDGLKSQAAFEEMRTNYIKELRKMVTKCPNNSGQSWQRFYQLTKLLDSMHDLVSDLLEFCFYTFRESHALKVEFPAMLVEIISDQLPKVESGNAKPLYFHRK
The experiment in a line: MR reporter assay (off-target activity). The class given is cell-based. Conditions: steroid 1 μM; percent of 1 μM corticosterone. On the procedure: Similar to previous reports, for induction 100 ng pHHLuc (MMTV-Luc) plasmid, 0.1 ng pRShGR together with 5 ng phRGtkRenilla were transfected by X-tremeGENE 9 (Roche) into AD293 cells per well in 24-well plate. For transrepression, 10 ng AP-1-Luc or 10ng pNF-κB-luc, 100 ng pRShGR and 5 ng phRGtkRenilla were transfected into AD293 cells per well. We used the same transfection protocol for the MR and PR assays, except of the use of 0.1 ng MR or PR plasmid to substitute GR. One day after transfection, for induction, cells were directly treated by steroids for 16 h; for repression, cells were treated with either PMA at 0.6 ng ml^–1 (for AP-1 reporter) or TNFα at 2 ng ml^–1 (for NF-κB reporter), together with various steroids. Cells were collected by addition of 1× Passive Lysis Buffer (Promega, Madison, WI, USA), and luciferase activity was assayed by the Dual-Glo Luciferase system (Promega). Data were plotted as firefly luciferase activity normalized to Renilla luciferase activity in Relative Luciferase Units.
In general terms: In a reporter assay the amount or activity of a reporter protein is the signal.

One molecule from paper PMC4822341 (Cell Discovery, 2015) can be followed below.

Consider `CON(C)C(=O)C1(OC(=O)c2ccco2)C(C)CC2C3CC(F)C4=Cc5c(cnn5-c5ccccc5)CC4(C)C3(F)C(O)CC21C` (centres unmarked) [VSGC12], for which the “growth inhibition (body weight)” value in series [1] is listed as “did not cause a significant growth inhibition”. Besides, the MR activity result at MR is “higher MR activity than VSG22 and FP, but a lower activity than MF and a similar activity (difference not statistically significant) as FF”.
